Tested on: MV-4-11 cells
Assay: Gene expression microarray analysis (Affymetrix PrimeView) and GSEA
Format: cell-based, human
Design: RFU PODN (11730768_x_at) / Fold change /veh PODN (11730768_x_at) / RFU LINC00158 (11744669_a_at) / Fold change /veh LINC00158 (11744669_a_at) / RFU DUSP10 (11751237_a_at) / Fold change /veh DUSP10 (11751237_a_at) / RFU ID3 (11757404_x_at) / Fold change /veh ID3 (11757404_x_at) / RFU PLEKHG5 (11737974_s_at) / Fold change /veh PLEKHG5 (11737974_s_at) / RFU LRRC4B (11730491_at) / Fold change /veh LRRC4B (11730491_at) / RFU GIMAP4 (11747438_a_at) / Fold change /veh GIMAP4 (11747438_a_at) / RFU KRT8 (11758183_x_at) / Fold change /veh KRT8 (11758183_x_at) / RFU CNN1 (11734310_a_at) / Fold change /veh CNN1 (11734310_a_at) / RFU VPS37D (11726825_at) / Fold change /veh VPS37D (11726825_at) / RFU C10orf10 (11716522_x_at) / Fold change /veh C10orf10 (11716522_x_at) / RFU KIR2DL2 /// KIR2DL4 /// KIR2DL5A /// KIR2DL5B /// KIR2DS1 /// KIR2DS2 /// KIR2DS3 /// KIR2DS4 /// KIR3DL3 /// KIR3DL3 /// KIR3DS1 (11738374_at) / Fold change /veh KIR2DL2 /// KIR2DL4 /// KIR2DL5A /// KIR2DL5B /// KIR2DS1 /// KIR2DS2 /// KIR2DS3 /// KIR2DS4 /// KIR3DL3 /// KIR3DL3 /// KIR3DS1 (11738374_at) / RFU C1QL1 (11718748_at) / Fold change /veh C1QL1 (11718748_at) / RFU TMPRSS4 (11747572_a_at) / Fold change /veh TMPRSS4 (11747572_a_at) / RFU HAMP (11756126_x_at) / Fold change /veh HAMP (11756126_x_at) / RFU RNFT2 (11725882_a_at) / Fold change /veh RNFT2 (11725882_a_at) / RFU NR4A2 (11747474_a_at) / Fold change /veh NR4A2 (11747474_a_at) / RFU ABCC12 (11746883_a_at) / Fold change /veh ABCC12 (11746883_a_at) / RFU TMEM136 (11760407_x_at) / Fold change /veh TMEM136 (11760407_x_at) / RFU CLDN22 /// WWC2 (11732394_at) / Fold change /veh CLDN22 /// WWC2 (11732394_at) / RFU HLA-DPB1 (11760878_x_at) / Fold change /veh HLA-DPB1 (11760878_x_at) / RFU SPINT1 (11716480_a_at) / Fold change /veh SPINT1 (11716480_a_at) / RFU GAP43 (11754022_s_at) / Fold change /veh GAP43 (11754022_s_at) / RFU A4GNT (11735810_at) / Fold change /veh A4GNT (11735810_at) / RFU PRB3 (11715151_x_at) / Fold change /veh PRB3 (11715151_x_at) / RFU TUBB4B (11761932_at) / Fold change /veh TUBB4B (11761932_at) / RFU CAPN14 (11732068_a_at) / Fold change /veh CAPN14 (11732068_a_at) / RFU TMCC2 (11721928_a_at) / Fold change /veh TMCC2 (11721928_a_at) / RFU IRGQ (11745062_a_at) / Fold change /veh IRGQ (11745062_a_at) / RFU FAM174B (11720279_a_at) / Fold change /veh FAM174B (11720279_a_at) / RFU TMPRSS4 (11748680_a_at) / Fold change /veh TMPRSS4 (11748680_a_at) / RFU FAM212B (11763350_a_at) / Fold change /veh FAM212B (11763350_a_at) / RFU PLEKHG5 (11743358_a_at) / Fold change /veh PLEKHG5 (11743358_a_at) / RFU ZSCAN30 (11745921_a_at) / Fold change /veh ZSCAN30 (11745921_a_at) / RFU CMKLR1 (11741424_a_at) / Fold change /veh CMKLR1 (11741424_a_at) / RFU LOC101060620 /// MAPK8IP1 (11723275_at) / Fold change /veh LOC101060620 /// MAPK8IP1 (11723275_at) / RFU SPTSSB (11747773_x_at) / Fold change /veh SPTSSB (11747773_x_at) / RFU PRSS12 (11739890_at) / Fold change /veh PRSS12 (11739890_at) / RFU BIN1 (11741810_x_at) / Fold change /veh BIN1 (11741810_x_at) / RFU WNT11 (11732464_a_at) / Fold change /veh WNT11 (11732464_a_at) / RFU C10orf10 (11716521_a_at) / Fold change /veh C10orf10 (11716521_a_at) / RFU C5orf56 (11738089_at) / Fold change /veh C5orf56 (11738089_at) / RFU CYB561 (11721691_x_at) / Fold change /veh CYB561 (11721691_x_at) / RFU ANKRD19P (11752326_a_at) / Fold change /veh ANKRD19P (11752326_a_at) / RFU OR2T12 /// OR2T33 /// OR2T8 (11738714_s_at) / Fold change /veh OR2T12 /// OR2T33 /// OR2T8 (11738714_s_at) / RFU VCAN (11748164_a_at) / Fold change /veh VCAN (11748164_a_at) / RFU JSRP1 (11732532_at) / Fold change /veh JSRP1 (11732532_at) / RFU KRTAP10-11 (11738290_x_at) / Fold change /veh KRTAP10-11 (11738290_x_at) / RFU MYO3A (11730013_a_at) / Fold change /veh MYO3A (11730013_a_at) / RFU EBF3 (11725865_a_at) / Fold change /veh EBF3 (11725865_a_at) / RFU CAMK2N1 (11719241_x_at) / Fold change /veh CAMK2N1 (11719241_x_at) / RFU C5orf56 (11738088_a_at) / Fold change /veh C5orf56 (11738088_a_at) / RFU OLFML3 (11715873_a_at) / Fold change /veh OLFML3 (11715873_a_at) / RFU LOC100653217 /// NTM (11731650_a_at) / Fold change /veh LOC100653217 /// NTM (11731650_a_at) / RFU MAPK11 (11762145_a_at) / Fold change /veh MAPK11 (11762145_a_at) / RFU FIZ1 (11724087_x_at) / Fold change /veh FIZ1 (11724087_x_at) / RFU OASL (11726364_x_at) / Fold change /veh OASL (11726364_x_at) / RFU SOX15 (11748057_x_at) / Fold change /veh SOX15 (11748057_x_at) / RFU CD79A (11719716_a_at) / Fold change /veh CD79A (11719716_a_at) / RFU HIST1H1D (11736915_at) / Fold change /veh HIST1H1D (11736915_at) / RFU CASKIN2 (11723855_a_at) / Fold change /veh CASKIN2 (11723855_a_at) / RFU LOC730098 (11760151_x_at) / Fold change /veh LOC730098 (11760151_x_at) / RFU OR4N2 (11742367_at) / Fold change /veh OR4N2 (11742367_at) / RFU PRRT2 (11749266_a_at) / Fold change /veh PRRT2 (11749266_a_at) / RFU SNX32 (11753110_a_at) / Fold change /veh SNX32 (11753110_a_at) / RFU CDHR5 (11726645_a_at) / Fold change /veh CDHR5 (11726645_a_at) / RFU RCAN1 (11760418_a_at) / Fold change /veh RCAN1 (11760418_a_at) / RFU FAM167A (11723789_a_at) / Fold change /veh FAM167A (11723789_a_at) / RFU FAM26E (11764081_at) / Fold change /veh FAM26E (11764081_at) / RFU ISYNA1 (11749810_s_at) / Fold change /veh ISYNA1 (11749810_s_at) / RFU ACY1 (11761880_at) / Fold change /veh ACY1 (11761880_at) / RFU 11764098_at / Fold change /veh 11764098_at / RFU SAMD14 (11745864_x_at) / Fold change /veh SAMD14 (11745864_x_at) / RFU NPB (11741838_a_at) / Fold change /veh NPB (11741838_a_at) / RFU TMPRSS6 (11731388_a_at) / Fold change /veh TMPRSS6 (11731388_a_at) / RFU KRTAP10-2 (11738614_at) / Fold change /veh KRTAP10-2 (11738614_at) / RFU ARHGAP8 /// PRR5-ARHGAP8 (11727945_x_at) / Fold change /veh ARHGAP8 /// PRR5-ARHGAP8 (11727945_x_at) / RFU KRTAP5-7 /// NADSYN1 (11734609_at) / Fold change /veh KRTAP5-7 /// NADSYN1 (11734609_at) / RFU RASL12 (11751679_a_at) / Fold change /veh RASL12 (11751679_a_at) / RFU CDKN2B (11736163_a_at) / Fold change /veh CDKN2B (11736163_a_at) / RFU PRF1 (11729649_at) / Fold change /veh PRF1 (11729649_at) / RFU, ZNF638 /// ZNF638-IT1 / Fold change vs veh, ZNF638 /// ZNF638-IT1 / RFU, PANK3 / Fold change vs veh, PANK3 / RFU, SH3YL1 / Fold change vs veh, SH3YL1 / RFU, ZEB2 / Fold change vs veh, ZEB2 / RFU, NRIP1 / Fold change vs veh, NRIP1 / RFU, PTTG1IP / Fold change vs veh, PTTG1IP / RFU, CAPN2 / Fold change vs veh, CAPN2 / RFU, MED14 / Fold change vs veh, MED14 / RFU, SNORA58 / Fold change vs veh, SNORA58 / RFU, C1orf63 / Fold change vs veh, C1orf63 / RFU, LRRFIP1 / Fold change vs veh, LRRFIP1 / RFU, NDUFAF7 / Fold change vs veh, NDUFAF7 / RFU, SLC12A2 / Fold change vs veh, SLC12A2 / RFU, IBTK / Fold change vs veh, IBTK / RFU, ESF1 / Fold change vs veh, ESF1 / Fold change vs veh, TMEM50B / RFU, TAOK1 / Fold change vs veh, TAOK1 / RFU, ACBD3 / Fold change vs veh, ACBD3 / RFU, TMA16 / Fold change vs veh, TMA16 / RFU, RWDD3 / Fold change vs veh, RWDD3 / RFU, BCAT1 / Fold change vs veh, BCAT1 / RFU, EDEM3 / Fold change vs veh, EDEM3 / RFU, TMEM33 / Fold change vs veh, TMEM33 / RFU, WDR75 / Fold change vs veh, WDR75 / RFU, AHCTF1 / Fold change vs veh, AHCTF1 / RFU, TFRC / Fold change vs veh, TFRC / RFU, ZDHHC17 / Fold change vs veh, ZDHHC17 / RFU, NOM1 / Fold change vs veh, NOM1 / RFU, ARL8B / Fold change vs veh, ARL8B / RFU, ZBTB11 / Fold change vs veh, ZBTB11 / RFU, TAMM41 / Fold change vs veh, TAMM41 / RFU, KIAA1704 /// LOC100996395 / Fold change vs veh, KIAA1704 /// LOC100996395 / RFU, ING1 / Fold change vs veh, ING1 / RFU, TRMT61B / Fold change vs veh, TRMT61B / RFU, FUBP3 / Fold change vs veh, FUBP3 / RFU, TP53 / Fold change vs veh, TP53 / RFU, TNKS2 / Fold change vs veh, TNKS2 / RFU, ZFP14 / Fold change vs veh, ZFP14 / RFU, ACTR2 / Fold change vs veh, ACTR2 / RFU, PPP3R1 / Fold change vs veh, PPP3R1 / RFU, PIK3R1 / Fold change vs veh, PIK3R1 / RFU, HNRNPA1 / Fold change vs veh, HNRNPA1 / RFU, RNF170 / Fold change vs veh, RNF170 / RFU, ZNF28 / Fold change vs veh, ZNF28 / RFU, RNGTT / Fold change vs veh, RNGTT / RFU, OGT / Fold change vs veh, OGT / RFU, BRD1 / Fold change vs veh, BRD1 / RFU, MARS / Fold change vs veh, MARS / RFU, ZNF655 / Fold change vs veh, ZNF655 / RFU, FAHD1 / Fold change vs veh, FAHD1 / RFU, BDP1 / Fold change vs veh, BDP1 / RFU, LRRCC1 / Fold change vs veh, LRRCC1 / RFU, ARID1A / Fold change vs veh, ARID1A / RFU, ZNF146 / Fold change vs veh, ZNF146 / RFU, ZNF330 / Fold change vs veh, ZNF330 / RFU, GPN3 / Fold change vs veh, GPN3 / RFU, C9orf123 / Fold change vs veh, C9orf123 / RFU, N4BP2L2 / Fold change vs veh, N4BP2L2 / RFU, ARFIP1 / Fold change vs veh, ARFIP1 / RFU, FAM179B / Fold change vs veh, FAM179B / RFU, BCL10 / Fold change vs veh, BCL10 / RFU, UHRF1BP1L / Fold change vs veh, UHRF1BP1L / RFU, BET1 / Fold change vs veh, BET1 / RFU, CNOT2 / Fold change vs veh, CNOT2 / RFU, ZNF268 / Fold change vs veh, ZNF268 / Fold change vs veh, ZNF507 / RFU, DGCR2 / Fold change vs veh, DGCR2 / RFU, WDSUB1 / Fold change vs veh, WDSUB1 / Fold change vs veh, HSP90B1 /// MIR3652 / RFU, ADSS / Fold change vs veh, ADSS / RFU, GK / Fold change vs veh, GK / RFU, ZNF148 / Fold change vs veh, ZNF148 / RFU, TAF9 / Fold change vs veh, TAF9 / RFU, SLC1A5 / Fold change vs veh, SLC1A5 / RFU, SLMO2 / Fold change vs veh, SLMO2 / RFU, ABCC4 / Fold change vs veh, ABCC4 / RFU, LOC101060439 /// RAP1B / Fold change vs veh, LOC101060439 /// RAP1B / RFU, RFX7 / Fold change vs veh, RFX7 / RFU, GTPBP10 / Fold change vs veh, GTPBP10 / RFU, CNEP1R1 / Fold change vs veh, CNEP1R1 / RFU, BIVM-ERCC5 /// ERCC5 / Fold change vs veh, BIVM-ERCC5 /// ERCC5 / RFU, ILF3 / Fold change vs veh, ILF3 / RFU 11762660_at / Fold change /veh 11762660_at / RFU VCAN (11757783_s_at) / Fold change /veh VCAN (11757783_s_at) / RFU DDX43 (11728927_at) / Fold change /veh DDX43 (11728927_at) / RFU KRT8 (11758188_x_at) / Fold change /veh KRT8 (11758188_x_at) / RFU NKD1 (11759106_at) / Fold change /veh NKD1 (11759106_at) / RFU SRD5A1 (11742802_a_at) / Fold change /veh SRD5A1 (11742802_a_at) / RFU TPSAB1 /// TPSB2 (11721975_s_at) / Fold change /veh TPSAB1 /// TPSB2 (11721975_s_at) / RFU GSTM3 (11746129_a_at) / Fold change /veh GSTM3 (11746129_a_at) / RFU IL23R (11737362_x_at) / Fold change /veh IL23R (11737362_x_at) / RFU TMEM51 (11727254_a_at) / Fold change /veh TMEM51 (11727254_a_at) / RFU PIWIL2 (11732686_x_at) / Fold change /veh PIWIL2 (11732686_x_at) / RFU ORM1 (11744905_x_at) / Fold change /veh ORM1 (11744905_x_at) / RFU CCDC152 (11743942_at) / Fold change /veh CCDC152 (11743942_at) / RFU ECM1 (11717891_a_at) / Fold change /veh ECM1 (11717891_a_at) / RFU IL23R (11748794_a_at) / Fold change /veh IL23R (11748794_a_at) / RFU TNFAIP8L3 (11732012_x_at) / Fold change /veh TNFAIP8L3 (11732012_x_at) / RFU MBOAT4 (11741988_at) / Fold change /veh MBOAT4 (11741988_at) / RFU 11764193_at / Fold change /veh 11764193_at / RFU TMEM53 (11763286_at) / Fold change /veh TMEM53 (11763286_at) / RFU MAGEB2 (11727129_at) / Fold change /veh MAGEB2 (11727129_at) / RFU TMEM200A (11744735_a_at) / Fold change /veh TMEM200A (11744735_a_at) / RFU CCDC152 (11751479_a_at) / Fold change /veh CCDC152 (11751479_a_at) / RFU FAM211A (11726209_a_at) / Fold change /veh FAM211A (11726209_a_at) / RFU RGS16 (11746705_a_at) / Fold change /veh RGS16 (11746705_a_at) / RFU VCAN (11755009_s_at) / Fold change /veh VCAN (11755009_s_at) / RFU RHOB (11743442_s_at) / Fold change /veh RHOB (11743442_s_at) / RFU RGS16 (11720943_a_at) / Fold change /veh RGS16 (11720943_a_at) / RFU RGS16 (11720944_at) / Fold change /veh RGS16 (11720944_at) / RFU, VPS4B / Fold change vs veh, VPS4B / RFU, CREB1 / Fold change vs veh, CREB1 / RFU, DNAJC13 / Fold change vs veh, DNAJC13 / RFU, GNAQ / Fold change vs veh, GNAQ / RFU, CDK5R1 / Fold change vs veh, CDK5R1 / RFU, ZRANB3 / Fold change vs veh, ZRANB3 / RFU, CUL4A / Fold change vs veh, CUL4A / RFU, CCNY / Fold change vs veh, CCNY / RFU, UFL1 / Fold change vs veh, UFL1 / RFU, COG3 / Fold change vs veh, COG3 / RFU, DIAPH2 / Fold change vs veh, DIAPH2 / RFU, SKA2 / Fold change vs veh, SKA2 / RFU, AFF3 / Fold change vs veh, AFF3 / RFU, LMF1 / Fold change vs veh, LMF1 / RFU, IPO11 / Fold change vs veh, IPO11 / RFU, DFFB / Fold change vs veh, DFFB / RFU, FOXP1 / Fold change vs veh, FOXP1 / RFU, CARD8 / Fold change vs veh, CARD8 / RFU, STRN3 / Fold change vs veh, STRN3 / RFU, ADK / Fold change vs veh, ADK / RFU, RASSF2 / Fold change vs veh, RASSF2 / RFU, WIPF1 / Fold change vs veh, WIPF1 / RFU, LARP1B / Fold change vs veh, LARP1B / RFU, RASA1 / Fold change vs veh, RASA1 / RFU, RB1 / Fold change vs veh, RB1 / RFU, PPFIA1 / Fold change vs veh, PPFIA1 / RFU, MAT2A / Fold change vs veh, MAT2A / RFU, CCT5 / Fold change vs veh, CCT5 / RFU, WDR92 / Fold change vs veh, WDR92 / RFU, CUX1 / Fold change vs veh, CUX1 / RFU, TTC7A / Fold change vs veh, TTC7A / RFU, TMEM135 / Fold change vs veh, TMEM135 / RFU, DEPTOR / Fold change vs veh, DEPTOR / RFU, CPM / Fold change vs veh, CPM / RFU, DNAJB6 / Fold change vs veh, DNAJB6 / RFU, CACNA2D3 / Fold change vs veh, CACNA2D3 / RFU, DTX4 / Fold change vs veh, DTX4 / RFU, TFCP2 / Fold change vs veh, TFCP2 / RFU, GMCL1 /// GMCL1P1 / Fold change vs veh, GMCL1 /// GMCL1P1 / RFU, AEBP2 / Fold change vs veh, AEBP2 / RFU, SNHG1 /// SNORD22 /// SNORD25 /// SNORD26 /// SNORD27 /// SNORD28 /// SNORD29 /// SNORD31 / Fold change vs veh, SNHG1 /// SNORD22 /// SNORD25 /// SNORD26 /// SNORD27 /// SNORD28 /// SNORD29 /// SNORD31 / Fold change (Aza/veh), C12orf56 (ProbeSet 11735607_a_at) / Fold change (ACY-1035/veh), C12orf56 (ProbeSet 11735607_a_at) / Fold change (Aza/veh), FGFR1OP (ProbeSet 11751329_s_at) / Fold change (ACY-1035/veh), FGFR1OP (ProbeSet 11751329_s_at) / Fold change (Aza/veh), VPS36 (ProbeSet 11739960_a_at) / Fold change (ACY-1035/veh), VPS36 (ProbeSet 11739960_a_at) / RFU SYPL1 (11715823_x_at) / Fold change /veh SYPL1 (11715823_x_at) / RFU IGFBP7 (11715501_s_at) / Fold change /veh IGFBP7 (11715501_s_at) / RFU REEP3 (11722064_at) / Fold change /veh REEP3 (11722064_at) / RFU IGLL1 (11728026_x_at) / Fold change /veh IGLL1 (11728026_x_at): dose or concentration left out as unconfirmed
Conditions: MV-4-11 cells, 48 hours

Nc1ncn([C@@H]2O[C@H](CO)[C@@H](O)[C@H]2O)c(=O)n1 [azacitidine]
Fold change /veh VCAN (11757783_s_at): 1.30

Source: article PMC5218480 (PLoS ONE, 2017)
